Experiments:
[1] = tested on: haloperidol-induced catalepsy in rats; assay: Reversal of haloperidol-induced catalepsy in rats; assay type: in vivo, Sprague-Dawley rats; conditions: haloperidol 3 mg/kg i.p.
Description: FIG. 1 is a schematic representation of the effect of (S)-2-(benzylaminomethyl)-2,3,8,9-tetrahydro-7H-1,4-dioxino[2,3-e]indol-8-one (agent) on haloperidol-induced catalepsy in rats at 60 minutes after drug treatment, the time point of greatest reversal as measured by seconds spent in catelepsy over a dose range of 0.003 to 3 mg/kg s.c. of agent. The data are means±SEM.
Tests for reversal of haloperidol-induced catalepsy in rats were conducted according to a variation of the methods of Svensson et al., Neuropharmacology, 1993, 32:1037-1045. Rats (200-250 g) were transported from the colony room to the experimental room and held there for the duration of the experiment. Haloperidol, dissolved in 0.25% Tween 80®, was administered to all animals at a dose of 3 mg/kg i.p. Sixty minutes later, (S)-2-(benzylamino-methyl)-2,3,8,9-tetrahydro-7H-1,4-dioxino[2,3-e]indol-8-one, also dissolved in 0.25% Tween 80®, was administered s.c. at 4 dose levels to 6 male Sprague-Dawley rats per dose level. A control group, assessed simultaneously with (S)-2-(benzylamino-methyl)-2,3,8,9-tetrahydro-7H-1,4-dioxino[2,3-e]indol-8-one treated groups, received a vehicle (VEH) injection of 0.25% Tween 80® at equal volumes (1 ml/kg). Animals were assessed for catalepsy at 30, 60, 90 and 120 minutes after drug administration by placing the animal's forepaws on a wooden cube (8×8×8 cm). The time that the animal remained with at least one of the forepaws on the cube was measured (maximum=60 sec). The righting reflex was then tested and used to discard sedated subjects. Data were analyzed using a two-factor analysis of variance with one repeated measure. A subsequent least significant difference from control test (p<0.05) was used to determine the minimal effective dose (MED) for reversing haloperidol-induced catalepsy and to determine time of onset. A trend test was then used to determine at which time points (if any) there was a dose-related effect. […]

catalepsy in rats = assay: Cataleptogenic potential in rats (no haloperidol); assay type: in vivo; conditions: 0.003 to 3 mg/kg s.c., 60 min post dosing, similar at the other time points
[2] = tested on: d-amphetamine induced hyperactivity in mice; assay: Antagonism of d-amphetamine-induced hyperlocomotion in mice; assay type: in vivo; conditions: d-amphetamine 2.5 mg/kg i.p.
Description: FIG. 3 is a schematic representation of the effect of (S)-2-(Benzylamino-methyl)-2,3,8,9-tetrahydro-7H-1,4-dioxino[2,3-e]indol-8-one (agent) to reverse d-amphetamine induced hyperactivity in mice. The data are expressed as a percentage of the activity level (horizontal activity counts) observed in mice treated with d-amphetamine alone for eight doses ranging from 0.0001 to 1 mg/kg s.c. of agent. The data are presented as means±SEM.
The ability to antagonize amphetamine-induced hyperlocomotion was tested according to a modified version of the methods of Riffee and Wilcox, Psychopharmacology, 1985, 85:97-101. Mice (25-30 g) were transported from the colony room to the experimental room and held there for the duration of the experiment. […] Control groups, assessed simultaneously with drug-treated groups, received vehicle at equal volumes (10 ml/kg). […] Activity was monitored for 30 minutes with lights on using Omnitech Digiscan® (Columbus, Ohio) infrared monitors. Each infrared beam break was counted by the automated system and totaled at 10 minute intervals. […]
FIG. 3 is a schematic representation of the effect of (S)-2(Benzylamino-methyl)-2,3,8,9-tetrahydro-7H-1,4-dioxino[2,3-e]indol-8-one (agent) to reverse d-amphetamine induced hyperactivity in mice. The data are expressed as a percentage of the activity level observed in mice treated with d-amphetamine alone and are presented as means±SEM.

For `O=C1Cc2c(ccc3c2O[C@@H](CNCc2ccccc2)CO3)N1` [(S)-2-(benzylamino-methyl)-2,3,8,9-tetrahydro-7H-1,4-dioxino[2,3-e]indol-8-one], the ED50 ([1]; Rattus norvegicus, 1 h, agent s.c., 60 minutes after drug treatment (time point of greatest reversal), read-out: ED50 (dose producing 50% reduction in maximal response), reversal of haloperidol-induced catalepsy) was 0.08 mg/kg, the “time spent in catalepsy position” value ([1]; agent 0.003 to 3 mg/kg s.c., 60 minutes after drug treatment) was “dose-dependent decrease” and the “MED (minimal effective dose) for reversing haloperidol-induced catalepsy” value ([1]; agent s.c. 60 min later, 60 minutes after drug treatment) was 0.3 mg/kg. For the same compound, the “ability to induce catalepsy” value (catalepsy in rats) was “lack of ability of the agent to induce significant catalepsy”, the ED50 ([2]; Mus musculus, agent s.c., horizontal activity counts 10-20 min, read-out: ED50 (dose producing 50% reduction in activity), d-amphetamine-induced hyperactivity) was 0.002 mg/kg and the “d-amphetamine-induced hyperactivity (horizontal activity counts, % of d-amphetamine alone)” value ([2]; agent 0.0001 to 1 mg/kg s.c.) was “dose-dependent decreased”.
